The source of these data is patent US6800625B2, “Substituted 2,4-dihydro-pyrrolo[3,4-b]quinolin-9-one derivatives useful as phosphodiesterase inhibitors” (Janssen Pharmaceutica N.V., priority 2002, dated 2004).

One series concerns the target PDEV (UniProt O76074). The experiment in a line: Cyclic nucleotide phosphodiesterase (PDE) assay, measurement of inhibition of PDEV. Format: biochemical, rabbit or human. As to conditions: PDEV isolated from rabbit and human tissues; 1 μM cGMP, 10% DMSO, 30° C., 30 minutes. The method, then:
Cyclic Nucleotide Phosphodiesterase (PDE) Assay
PDEV was isolated from rabbit and human tissues according to the protocol described by Boolell et al. (Boolell, M., Allen, M. J., Ballard, S. A., Ge[o-Attee, S., Muirhead, G. J., Naylor, A. M., Osterdoh, I. H., and Gingell, C) in International Journal of Impotence Research 1996 8, 47-52 with minor modifications.
Briefly, rabbit or human tissues were homogenized in an ice-cold buffer solution containing 20 mM HEPES (pH 7.2), 0.25M sucrose, 1 mM EDTA, and 1 mM phenylmethylsulphonyl fluoride (PMSF). The homogenates were centrifuged at 100,000 g for 60 minutes at 4° C. The supernatant was filtered through […] filter and loaded on a Pharmacia Mono Q anion exchange column (1 ml bed volume) that was equilibrated with 20 mM HEPES, 1 mM EDTA and 0.5 mM PMSF. After washing out unbound proteins, the enzymes were eluted with a linear gradient of 100-600 mM NaCl in the same buffer (35 to 50 ml total, depending on the tissue. Enzymes from the skeletal muscle, corpus cavernosum, retina, heart and platelet were eluted with 35, 40, 45, 50, and 50 ml respectively.) The column was run at a flow rate of 1 ml/min and 1 ml fractions were collected. […]
The assays were adapted to a 96-well format. […] An aliquot of 200 μl was taken and counted by liquid scintillation. PDE activity was expressed as pmol cyclic nucleotide hydrolyzed/min/ml of enzyme preparation. […]

The test system of a further series is men who suffer from ED. To be noted: cited from earlier work.

The IC50 is the concentration at which inhibition is half-maximal. Low readings indicate inhibition by little substance, high ones a need for much substance. With `O=C1c2ccccc2NC23OC12CN(Cc1ccccc1)C3c1ccc2c(c1)OCO2` (centres unmarked) [Compound 1], the IC50 against PDEV was 545 nM.

On to `O=c1c2ccccc2[nH]c2c(-c3ccc4c(c3)OCO4)n(Cc3ccccc3)cc12` [Compound 2], for which the 50% inhibitory concentration (IC50) at PDEV was 299 nM.

With `CCCc1nn(C)c2c(=O)[nH]c(-c3cc(S(=O)(=O)N4CCN(C)CC4)ccc3OCC)nc12` [sildenafil, 5-[2-ethoxy-5-(4-methylpiperazin-1-ylsulphonyl)phenyl]-1-methyl-3-n-propyl-6,7-dihydro-1H-pyrazolo[4,3-d]pyrimidin-7-one], the “improved sexual function, share of men” value in the series with men who suffer from ED (men who suffer from ED of psychogenic or organic etiology, clinical studies) is “about 70%”. The “improved erections, share of patients” value in the series with men who suffer from ED (patients who had undergone a radical prostatectomy, versus 15% on placebo) is reported as 43%. In the series on men who suffer from ED (use of sildenafil, result from non-selective effects on a variety of tissues), the undesirable side effects result is “headache, flushing and disrupted color vision”.
